Laboratory results from patent US20130053434A1, “IRREVERSIBLE INHIBITORS USEFUL FOR THE TREATMENT OF KINASE-RELATED PATHOLOGIES” (CENTRE NATIONAL DE LA RECHERCHE SCIENTIFIQUE, priority 2009, published 2013).

Tests used:
[1] = target: MEK1 (Homo sapiens, UniProt Q02750); conditions: cited from earlier work
[2] = in vivo; cited from earlier work
[3] = target: ERK2 (Homo sapiens, UniProt P28482); conditions: covalent Michael adduct with cys166; cited from earlier work
[4] = tested on: colon and lung tumors; conditions: mice bearing colon and lung tumors; cited from earlier work
[5] = target: T1, VEGFR2 (Homo sapiens, UniProt P35968); experiment: biochemical inhibition of VEGF-R2; conditions: FIG. 20
T1 sequence (P35968 20-1356, species assumed): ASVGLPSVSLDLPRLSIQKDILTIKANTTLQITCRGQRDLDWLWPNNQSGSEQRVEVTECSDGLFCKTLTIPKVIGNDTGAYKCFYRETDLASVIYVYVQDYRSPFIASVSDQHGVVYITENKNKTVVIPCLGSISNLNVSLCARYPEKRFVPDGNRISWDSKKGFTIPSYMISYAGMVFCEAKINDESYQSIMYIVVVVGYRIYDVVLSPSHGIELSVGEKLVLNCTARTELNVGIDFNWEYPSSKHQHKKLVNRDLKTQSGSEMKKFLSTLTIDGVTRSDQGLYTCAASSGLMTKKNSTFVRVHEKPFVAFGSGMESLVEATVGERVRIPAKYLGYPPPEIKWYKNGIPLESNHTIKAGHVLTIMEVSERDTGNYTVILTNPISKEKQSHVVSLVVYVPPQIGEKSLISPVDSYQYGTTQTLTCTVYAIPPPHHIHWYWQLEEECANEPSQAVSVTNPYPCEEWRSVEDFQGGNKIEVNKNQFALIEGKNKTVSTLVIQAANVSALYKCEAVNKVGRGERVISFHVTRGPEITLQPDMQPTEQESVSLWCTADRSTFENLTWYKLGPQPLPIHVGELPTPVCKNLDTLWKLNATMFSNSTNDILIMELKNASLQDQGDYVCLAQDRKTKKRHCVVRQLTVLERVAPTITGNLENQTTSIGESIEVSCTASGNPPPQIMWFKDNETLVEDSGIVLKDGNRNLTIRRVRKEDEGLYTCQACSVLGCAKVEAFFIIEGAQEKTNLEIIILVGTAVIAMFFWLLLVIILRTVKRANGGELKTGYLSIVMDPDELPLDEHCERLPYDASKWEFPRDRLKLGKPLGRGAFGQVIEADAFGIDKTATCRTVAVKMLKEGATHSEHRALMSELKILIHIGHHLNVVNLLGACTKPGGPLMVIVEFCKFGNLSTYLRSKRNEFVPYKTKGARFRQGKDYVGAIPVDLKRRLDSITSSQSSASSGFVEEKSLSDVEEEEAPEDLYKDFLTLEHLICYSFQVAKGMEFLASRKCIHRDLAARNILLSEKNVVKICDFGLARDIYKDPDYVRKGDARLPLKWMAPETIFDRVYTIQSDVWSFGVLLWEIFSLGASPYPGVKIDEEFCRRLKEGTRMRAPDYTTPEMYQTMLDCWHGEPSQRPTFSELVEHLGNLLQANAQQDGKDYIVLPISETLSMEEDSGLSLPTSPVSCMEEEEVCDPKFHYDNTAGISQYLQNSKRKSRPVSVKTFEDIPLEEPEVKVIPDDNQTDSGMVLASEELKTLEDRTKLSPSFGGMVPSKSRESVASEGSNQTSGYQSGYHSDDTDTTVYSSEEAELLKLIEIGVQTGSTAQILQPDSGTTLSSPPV
Description: It should be noted that as these compounds are expected to be irreversible inhibitors, the measured IC50 will depend on the procedure used and caution should be applied in comparing data from experiments performed under different conditions. To obtain a value which best reflects the rate of inactivation, the substrate and inhibitor were added simultaneously to the kinase solution. The data is shown in FIG. 9 (kinases have been ranked from the highest to least inhibited). As evident from FIG. 9, there is very little difference in relative selectivity of kinase inhibition throughout the library under these conditions. […] Overall, the trend of structure activity relationship which emerged from this screen is that the chiral methyl group at the ester position, while not essential, does provide higher activity (entry 6 vs. 10, 7 vs. 11 and 8 vs. 12). Substitution at the adjacent position with a hydroxyl group (entry 14 vs. 7) or at the β-position of the enone with a methyl abrogated activity (15-19). […] The trend of activity for the three natural products can be ranked as follows: alkene=epoxide>alkane. […] The two modifications of R^2 tested were beneficial in certain combinations. For example, the extra hydroxyl group present in fragment i does afford a significant (10 fold) gain of activity (8 vs. 7) in combination with fragment a. […]

[6] = isomerization of the enone under acid deprotection conditions; assay type: physicochemical; conditions: prolonged reaction times
Source text: The synthesis commenced with the straightforward conversion of ester 5 into fluoroenal 7 via aldehyde 6 relying on a Horner-Wadsworth-Emmons reaction with triethyl 2-fluoro-2-phosphonoacetate to install the desired E-fluoroenoal (FIG. 19). Reaction of aldehyde 7 with […] afforded the desired alcohol as a 1:1 diasteromeric mixture which was reduced to the cis-alkene using Lindlar's catalyst (H2, Pd/CaCO3) to afford compound 9. As the hydroxyl group will ultimately be oxidized to the ketone, the lack of selectivity is inconsequential. Benzoyl protection of alcohol 9 thus afforded 10 wherein the terminal OPMB was converted to an iodide 11 (DDQ; I2, PPh3, imidazole). Attempts to engage this compound in alkylation chemistry with a phenol led to rapid elimination of the iodide to give a conjugated triene (product not shown). To circumvent this elimination which was thought to be facilitated by the presence of the alkene, compound 10 was dihydroxylated (2.5:1 dr in favor of the desired isomer 12) and converted to acetonide 13. Conversion of the terminal protected PMB ether into an iodide afforded the key intermediate 14. Following previously established chemistry, fragment 14 was coupled to the aromatic moiety 15 bearing a benzylic selenide by alkylation followed by oxidation/elimination of the selenide to afford 17. […]

[7] = target: T1, VEGFR2; experiment: cellular inhibition of VEGFR2; assay type: cell-based; conditions: triplicate
Description: FIG. 21. […] Assays were performed in triplicate.
To gage the undiscriminate reactivity of these enone resorcylic acids with thiols, fluoroenone 2 and the parent analogue lacking the fluoride were treated with one equivalent of DTT (2 mM) as a prototypical thiol nucleophile in PBS (pH 7.4) containing 1% DMSO. […] With fluoroenone 1 and 2 in hand, we tested their efficacy against VEGF-R2 which was frequently found to be the most inhibited kinase in our profile of cis-enone resorcylic acid library (Dakas, P. Y., et al. (2007) Angew. Chem. Int. Ed. Engl. 46, 6899-902; Jogireddy, R., et al. (2009) Chem. Eur. J. 15, 11498-506) and KIT which represents a less inhibited kinase. […] Their cellular activity against VEGF-R2 did parallel the biochemical activity. […] During the course of our investigation, a similar modification was reported by researchers from Esai (Du, H., et al. (2009) Bioorg. Med. Chem. Lett. 19, 6196-9) however, their medicinal chemistry efforts focused the inhibition of inflammation related pathways (MEKs and their down-stream regulatory effect on cytokines) (Du, H., et al. (2009) Bioorg. Med. Chem. Lett. 19, 6196-9; Goto, M., et al. (2009) J. Pharmacol. Exp. Ther. 331, 485-95). […]

[8] = reactivity with DTT as prototypical thiol nucleophile; assay type: physicochemical; conditions: one equivalent of DTT (2 mM), PBS pH 7.4, 1% DMSO
Description: To gage the undiscriminate reactivity of these enone resorcylic acids with thiols, fluoroenone 2 and the parent analogue lacking the fluoride were treated with one equivalent of DTT (2 mM) as a prototypical thiol nucleophile in PBS (pH 7.4) containing 1% DMSO. […] With fluoroenone 1 and 2 in hand, we tested their efficacy against VEGF-R2 which was frequently found to be the most inhibited kinase in our profile of cis-enone resorcylic acid library (Dakas, P. Y., et al. (2007) Angew. Chem. Int. Ed. Engl. 46, 6899-902; Jogireddy, R., et al. (2009) Chem. Eur. J. 15, 11498-506) and KIT which represents a less inhibited kinase. […] Their cellular activity against VEGF-R2 did parallel the biochemical activity. […] During the course of our investigation, a similar modification was reported by researchers from Esai (Du, H., et al. (2009) Bioorg. Med. Chem. Lett. 19, 6196-9) however, their medicinal chemistry efforts focused the inhibition of inflammation related pathways (MEKs and their down-stream regulatory effect on cytokines) (Du, H., et al. (2009) Bioorg. Med. Chem. Lett. 19, 6196-9; Goto, M., et al. (2009) J. Pharmacol. Exp. Ther. 331, 485-95). […] It was further shown that the addition of a methyl substituent at the δ position to the enone enhanced the metabolic stability with a tolerable loss of activity (10 fold) (Du, H., et al. (2009) Bioorg. Med. Chem. Lett. 19, 6196-9). […]

[9] = tested on: orthotopically implanted RENCA-LN cells; experiment: orthotopic murine renal cell carcinoma (RENCA) model, in vivo efficacy; conditions: for tumor growth by bioluminescence and primary tumor volume: 20 mg/kg i.p.
Description: RENCA-LN cells were obtained and cultured as described above. Sixty female BALB/c mice of 5 to 6 weeks were orthotopically implanted RENCA-LN cells into the left kidney (4×10^5 cells in 25 μl aliquots into the subcapsular space through a flank incision, Day 0). The mice were randomly divided into 5 groups of 12 mice each. On day 2, therapy was initiated. Animals in the vehicle control group (group 1) received 10 ml/kg Vehicle (PBS w/o Ca/Mg, 10% DMSO, 40% PEG-300) i.p. once daily until day 19. Animals of positive control group (group 2) received 40 mg/kg Sunitinib (Sutent®) p.o. once daily until day 20. Animals of treatment group 3 and 4 received 20 mg/kg of 3 once daily and every other day respectively (i.p.). Animals of treatment group 5 received 20 mg/kg of 5 once daily (i.p.). Due to partial weight loss, therapy in Groups 3 and 5 was suspended on days 11 and 12 and stopped on day 17. On day 20, the study was terminated and a necropsy performed. All animals were weighted, anaesthetised by isoflurane and killed by exsanguination. Two animals in group 1 were found dead on day 19 and 1 animal in group 3 and 5 on day 11 and 9 respectively. At necropsy, primary tumor weight and volume, lung weight and number of lung metastases were determined. Primary tumor tissues were collected and divided into two parts. One part of each tumor was snap-frozen in liquid nitrogen and stored at −80° C. whereas the other part was analyzed via ex vivo bioluminescence imaging. During the course of the study, the growth of the orthotopically implanted RENCA tumors was monitored on days 7, 14 and 19 using in vivo bioluminescence imaging. For this purpose, luciferin was injected intraperitoneally (i.p.) into the mice and light emission was measured post injection (10 min) using a NightOWL LB 981 bioluminescence imaging system (Berthold Technologies, Germany). The migration of RENCA tumor cells into the lung (metastasis) was analyzed post necropsy by counting nodules and using the luciferase assay. For this purpose, lungs were collected, homogenized, and assayed for luciferase activity using the kit from Promega (E1501) according to the manufacturer's instructions. Protein concentrations were determined using a Bradford assay and used to normalize luciferase activities (except for the primary tumor). A histological examination of the tumor vasculature was performed. For this purpose, cryosections of primary tumor tissues (thickness=5-10 μm) from the snap-frozen portion of the organ and blood vessels were visualized by immunohistochemical staining for CD 31 (PECAM-1; PharMingen, San Diego, Calif.). […] Statistical analysis of efficacy data was done using the Mann Whitney test.

[10] = tested on: RENCA-LN cells; experiment: RENCA cell proliferation assay; assay type: cell-based, Murine
Description: Murine RENCA cells were originally obtained from a tumor that arose spontaneously in the kidney of BALB/c mice. Histologically, RENCA consists of granular cell type adenocarcinoma, which is pleomorphic with large nuclei. To obtain RENCA-LN, RENCA cells were transduced using a retrovirus encoding a luciferase-neomycin fusion protein and selected using 1 mg/ml G418. RENCA-LN cells were plated with 1.500 cells/150 μl/well in DMEM supplemented with 10% FCS in 96 well culture dishes. The following day the serial diluted test samples (from 1 mM to 0.1 μM in DMSO) were mixed with medium (1:25) and 50 μl of the mix was added to each well of the cultured cells (1:4) resulting in a final DMSO concentration of 1%. Cells were grown for 72 h at 10% CO2 and 37° C. After 72 h RENCA-LC cells were lysed in 100 μL luciferase assay buffer, and 10 μl of the lysate was assayed for luciferase activity. The mean value of the low controls of each 96 well cell culture plate represents the background which was subtracted from all other data points of the respective plate. Raw data were converted into percent proliferation relative to the high control, which were set to 100%. […] determination was done with GraphPad Prism 5.01 software with constrain of bottom to 0 and top to 100 using a nonlinear regression curve fit with variable hill slope. The equation is a four-parameter logistic equation. […]

[11] = tested on: VEGFRs; experiment: KinomeScan kinase selectivity profile (50 kinases): VEGFRs; assay type: binding; conditions: 1 μM
Source text: The selectivity profile was measure using the KinomeScan™ technology (http://www.kinomescan.com/) based on active-site dependent competition binding assay (Karaman, M. W., et al. (2008) Nat. Biotechnol. 26, 127-32; Fabian, M. A., et al. (2005) Nat. Biotechnol. 23, 329-36). Compounds 3 and 5 were profiled against a panel of 50 kinases including 42 kinases from the group of 48 kinases predicted by Santi et al. (Schirmer, A., et al. (2006) Proc. Natl. Acad. Sci. USA 103, 4234-9) to be targeted by hypothemycin and 5 mutants of FLT3 as well as 3 mutants of KIT. Both compounds were assayed at 1 μM. The results are expressed as a percentage of signal between a negative (DMSO) and positive (know binder) control [(test compound−positive control)/([…])×100].

[12] = solubility in aqueous buffers; assay type: physicochemical; conditions: compared with 5
Source text: (§1) As a bench mark, the natural product LL Z-1640-2 was also included in the assay. […] Compound 3 and 5 were selected as prototypical examples of modified RALs for further investigations. As described in the method section, both of these compounds derived from a common synthetic intermediate and can be readily prepared in gram quantities. […] Primary tumor weight confirmed these observations. A key objective of this study was to measure the effect of these compounds on metastasis. Upon termination of the study, the lungs were inspected for metastatic nodules and the ex-vivo luciferase activity of lung homogenates was measured. […] It should be noted that these compounds were also shown to inhibit the inflammation pathways which have been implicated in facilitating metastasis.

[13] = plasma half-life; assay type: in vitro ADME
[14] = dose finding study; assay type: in vivo
Source text: as §1

Chain of ERK2 (P28482 whole entry, species assumed): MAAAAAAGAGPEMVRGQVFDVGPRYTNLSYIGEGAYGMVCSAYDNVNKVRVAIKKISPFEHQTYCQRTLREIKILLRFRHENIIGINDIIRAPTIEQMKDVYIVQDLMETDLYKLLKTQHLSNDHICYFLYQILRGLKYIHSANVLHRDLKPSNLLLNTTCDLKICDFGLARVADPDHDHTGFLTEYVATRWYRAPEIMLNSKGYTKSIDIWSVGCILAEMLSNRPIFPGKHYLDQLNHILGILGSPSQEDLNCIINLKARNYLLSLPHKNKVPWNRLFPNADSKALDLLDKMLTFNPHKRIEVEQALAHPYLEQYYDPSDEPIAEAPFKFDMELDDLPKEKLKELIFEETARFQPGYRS
Chain of MEK1 (Q02750 whole entry): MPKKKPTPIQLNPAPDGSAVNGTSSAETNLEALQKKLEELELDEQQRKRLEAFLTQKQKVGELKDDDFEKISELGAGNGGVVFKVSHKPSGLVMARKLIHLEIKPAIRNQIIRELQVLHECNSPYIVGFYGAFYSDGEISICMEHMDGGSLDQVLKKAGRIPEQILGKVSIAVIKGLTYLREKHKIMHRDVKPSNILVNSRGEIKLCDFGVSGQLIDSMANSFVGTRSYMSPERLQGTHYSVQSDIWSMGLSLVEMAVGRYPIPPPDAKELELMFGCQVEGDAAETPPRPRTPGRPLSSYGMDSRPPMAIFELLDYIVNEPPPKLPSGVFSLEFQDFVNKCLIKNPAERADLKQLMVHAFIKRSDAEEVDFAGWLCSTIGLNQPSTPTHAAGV

With `CCNc1cc(O)c2c(c1)/C=C/C[C@H](O)[C@H](O)C(=O)/C=C\[C@@H](C)[C@H](C)OC2=O` [E6201] as the compound, how does the “selectivity for MEK1 relatively to PDGFRβ” value [1] read?
The value was > 200 fold.

Which results are given for `COc1cc(O)c2c(c1)[C@H]1O[C@@H]1C[C@H](O)[C@H](O)C(=O)/C=C\C[C@H](C)OC2=O` [hypothemycin]?
efficacy in animal models [2]: effective in animal models; inactivation of ERK2 [3]: irreversibly inactivates ERK2; tumor growth inhibition [4]: only modest growth inhibition

Which results are given for `C[C@H]1C/C=C(/F)C(=O)[C@@H](O)[C@@H](O)C/C=C/c2cc(O)cc(O)c2C(=O)O1` [fluoroenone 1]?
IC50 [5]: 6.8 nM; isomerization (epimerization) of the fluoroenone [6]: no trace of isomerization was observed; IC50 [7]: 17 nM

What does the source list for `C[C@H]1C/C=C(/F)C(=O)[C@@H](O)[C@@H](O)CCOc2cc(O)cc(O)c2C(=O)O1` [fluoroenone 2]?
IC50 [5]: 60.5 nM; reactivity with DTT compared with parent analogue lacking the fluoride [8]: reacting slower

With `C[C@H]1C/C=C\C(=O)[C@@H](O)[C@@H](O)CCOc2cc(O)cc(O)c2C(=O)O1` [1agh] as the compound, how does the “tumor vasculature histology (CD-31 staining), angiogenesis” value ([9]; 20 mg, q1d) read?
The value was “strong inhibition of angiogenesis”.

What about the “tumor growth in mice” value ([9]; 20 and 10 mg/kg) of the same compound?
Its value is “clear reduction in tumor growth”.

And the “tumor growth by bioluminescence and primary tumor volume” value ([9]; administered every other day)?
Its value is “marginal decrease activity”.

What about the animal weights decrease ([9]; between day 2 and day 5, q1d) of the same compound?
Its animal weights decrease is 8%.

And the “lung metastasis (metastatic nodules)” value ([9]; compared with untreated group, lungs inspected at termination)?
The value was “A similar result”.

What about the “tumor growth by bioluminescence and primary tumor volume” value ([9]; daily dosing) of the same compound?
Its value is “highly significant reduction of tumor growth”.

What about the “luciferase activity from lung homogenates” value ([9]; ex vivo, compared with untreated group) of the same compound?
The value was “A similar result”.

What about the “efficacy in inhibiting renal carcinoma cell line compared with natural product LL Z-1640-2” value ([10]; FIG. 14) of the same compound?
The value was “as effective as the natural product”.

And the IC50 ([10]; Mus musculus, Renca, FIG. 12, read-out: IC50, renal carcinoma line (RENCA))?
The IC50 was 100 to 500 nM.

What about the “inhibition of VEGFRs in kinase profile” value [11] of the same compound?
The value was “strongly inhibited”.

And the “solubility in aqueous buffers” value [12]?
The value was “notably more soluble in aqueous buffers than 5”.

What about the plasma half-life [13] of the same compound?
Its plasma half-life is “short plasma half life”.

And the tolerability ([14]; 25 mg/kg)?
The tolerability was “tolerated”.

And the “toxicity at high dose” value ([14]; 75 mg/kg)?
The value was “systemic toxicity”.
